The values below come from patent US5599974A, “Aldehydic agents for allosteric modification of hemoglobin” (Center for Innovative Technology, priority 1994, dated 1997).

Assay [1] concerns whole blood. As to the kind of experiment: Whole-blood studies: effect on the oxygen affinity of whole blood. As to conditions: for P50 D (aver.): heparinized whole blood mixed 1:1 with test compound solution, equilibrated 1 hour at 37° C., P50 C 25.0; for direction of shift of the oxygen equilibrium curve / ΔP50 D: whole blood; for ΔP50 D: 1 hour at 37° C., P50 D - P50 C. The class given is cell-based.

The target of assay [2] is T1, human hemoglobin (HbA) (Homo sapiens, UniProt P69905).
T1 construct: hemoglobin solution
As to the kind of experiment: Oxygen equilibrium studies of hemoglobin solutions (Hem-O-Scan oxygen dissociation curves). As to conditions: hemoglobin solution; for P50 D (aver.) / ΔP50 (P50 D - P50 C): Hb 2.7 mM; for P50 D (aver.): compound 10 mM (approx. 4:1), 50 mM HEPES pH 7.4, incubated at 4° C. for two hours; for ΔP50 (P50 D - P50 C): compound 10 mM, 50 mM HEPES pH 7.4, positive = right shift. In kind it is biochemical. An excerpt: In blood, hemoglobin is in equilibrium between two allosteric structures. In the "T" (for tense) state, hemoglobin is de-oxygenated. In the "R" (for relaxed) state, hemoglobin is oxygenated. An oxygen equilibrium curve can be scanned using well known equipment such as the Aminco™ Hem-o-scan to evaluate the affinity and degree of cooperativity (allosteric action) of hemoglobin. In the scan, the Y-axis plots the percent of hemoglobin oxygenation and the X-axis plots the partial pressure of oxygen in millimeters of mercury (mm Hg). If a horizontal line is drawn from the 50% oxygen saturation point to the scanned curve and a vertical line is drawn from the intersection point of the horizontal line with the curve to the partial pressure X-axis, a value commonly known as the P50 is determined. This is the pressure when the hemoglobin is 50% saturated with oxygen. By comparing the P50 value for treated hemoglobin to the P50 value for untreated normal adult human hemoglobin (HbA) under physiological conditions (i.e., 37° C., pH=7.4, and partial carbon dioxide pressure of 40 mm Hg), the degree of allosteric modification can be determined. When the P50 value for treated hemoglobin is lower than for HbA, a high oxygen affinity hemoglobin is indicated and the curve is said to be "left-shifted". Conversely, when the P50 value for treated hemoglobin is higher than for HbA, a low oxygen affinity hemoglobin is indicated and the curve is said to be "right-shifted".
In the oxygen equilibrium studies, the HbA was further purified by dialysis against pH 8.6. Tris buffer (50 mM, containing 40 mg EDTA/L) to remove any residual A2 hemoglobin. The pure HbA fraction was concentrated by using a Schleicher and Schuell colloidion bag apparatus, available from Schleicher and Schuell, Inc., with HEPES buffer (50 mM, pH 7.4) as the exchange buffer. The Hb concentration was determined by using the cyanmet method. The Hb concentration at this point was usually found to be around 35 g% (approximately 5.4 mM). Less than 5% methemoglobin was noted even after several days at 4° C. Oxygen dissociation curves were recorded on an AMINCO Hem-0-Scan oxygen dissociation analyzer available from Travenol Laboratories.
All compounds were dissolved in 50 mM HEPES buffer, pH 7.4, to give 20 mM of drug solution. The Hb (5.4 mM, in HEPES, pH 7.4) and the test compounds (20 mM) were mixed in 1:1 volume ratio (50μL of Hb+50μL of compound solution) to give final concentrations of 2.7 mM and 10mM, respectively (a molar ratio of test compound to hemoglobin of approximately 4:1). A control experiment was prepared by the addition of 50 μL of Hb to 50 μL of HEPES buffer. The mixtures were incubated at 4° C. for two hours before running the oxygen dissociation curves.

Assay [3] deals with T2, HbA (Homo sapiens, UniProt P69905).
T2 construct: co-crystals with compounds
As to the kind of experiment: X-ray diffraction analysis of HbA/drug complexes (difference electron-density maps). The settings on record: HbA tetramer/drug molar ratio 1:5 (TB17 1:10), Schiff base reduced, deoxygenated crystals. In kind it is binding. Here is the method:
Reaction of the drug compounds with HbA, crystallization and X-ray data collection of the HbA/drug complexes were performed according to the procedures of Wireko et al., Proc. Natl. Acad. Sci. USA, 1991, 88, 2209, which is herein incorporated by reference, with some slight modifications. Freshly prepared solutions of the synthesized compounds in potassium phosphate buffer were incubated at oxy HbA tetramer/drug molar ratios of 1:5 or 1:10 for at least 24 hours. Sodium cyanoborohydrie in phosphate buffer was added in 10- to 50-fold molar excess of HbA tetramer to reduce the Schiff's base adduct for at least 24 hours. The deoxygenated HbA/compound complexes were set up for crystallizations following the procedures described in Perutz et al., Crys. Growth, 1968, 2, 54, which is herein incorporated by reference, with some slight modifications. X-ray quality crystals for all complexes were obtained after three to seven days. Crystals of TB19 (discussed below) grown with HbA incubated and reduced under deoxygenated conditions was also used for data collection.
X-ray diffraction data for the MS2 complex (discussed below) was collected using a Rigaku AFC5R rotating anode diffractometer to a resolution of 4Å. All hk±1 reflections and their Friedel pairs were collected. One crystal, dimensions 0.3 to 1.2 mm was used for collection. Diffraction data for the rest of the complexes were collected with a Rigaku AFC5R rotating anode diffractometer equipped with an R-axis IIC image plate system, all to a resolution of 1.94A. Crystals of linear dimensions 0.2 to 0.5 mm were used. Data reduction, structure solution and calculation of Fourier difference electron-density maps were as described in Wireko et al., Proc. Natl. Acad. Sci. USA, 1991, 88, 2209.
Models of the compounds created with MMOD and minimized with MM2 force field were fitted to the electron-density by using FRODO on an EVANS and SUTHERLAND PS390 graphic station.
X-ray diffraction analyses were used to study several of the new drug complexes including MS1, MS2, TB8, TB10, TB17, TB19, TB32, TB36, TB62, and TB63. The difference electron-density maps of all complexes discussed are that of the HbA tetramer/drug molar ratio of 1:5, except TB17 which is 1:10. All drug molecules contain at least two functionalities, an aldehyde and a carboxylate, common to all of them. […] The only exception was MS2 where only one of the carboxylate oxygens was involved in the salt bridge interaction. The above binding site, which is common to all of the complexes, will be referred to as the α-cleft binding site. Some of the above drug compounds have additional functional groups which are also involved in additional interaction with other HbA residues, including hydrogen bonding, van der Waals interaction, and a second covalent bonding.
All complexes have two molecules of the drug compounds bound at the above-mentioned α-cleft site and are related by the two fold noncrystallographic axis. These sites are further noted as the α1-cleft site (Val-1α1 binding site), and the α2-cleft site (Val-1α2 binding site). In all complexes, the electron density at the α2-cleft site were slightly bigger and better defined than the electron density at the α1-cleft site. In addition to the binding at the α-cleft site, some of the drug compounds also bind to other secondary sites, including other sites in the α-cleft water cavity, the β-cleft water cavity located at Val-1β, and the Hb polymer contact site located near the residues His-116β and His-117β.

For `O=Cc1ccc(OCCCCOc2ccc(C=O)cc2C(=O)O)c(C(=O)O)c1` [TB19, 1,4-Bis(2-carboxy-4-formylphenoxy)-butane], in assay [1], the “P50 D (aver.)” value came to 19.5 mm Hg, the “direction of shift of the oxygen equilibrium curve” value is listed as “left shift” and the “ΔP50 D” value is -5.5 mm Hg. Further, in assay [2], the “direction of shift of the oxygen equilibrium curve” value is listed as “right shift”, the “P50 D (aver.)” value turned out to be 42.0 mm Hg and the “ΔP50 (P50 D - P50 C)” value was determined as 20.0 mm Hg. Besides, the “binding sites in HbA seen in the difference electron-density map” value in assay [3] is given as “binding exclusively at the two symmetry-relatedα-cleft sites”.
Turning to `O=Cc1ccc(OCc2ccccc2)c(C(=O)O)c1` [TB17, 2-benzyloxy-5-formylbenzoic acid], in assay [1], the “P50 D (aver.)” value is on record as 14.5 mm Hg, the “direction of shift of the oxygen equilibrium curve” value is reported as “left shift” and the “ΔP50 D” value was -9.5 mm Hg. In assay [2], the “direction of shift of the oxygen equilibrium curve” value is “right shift”. The “binding sites in HbA seen in the difference electron-density map” value in assay [3] is on record as “three molecules of TB17 reacted to the Hb tetramer”.
`O=Cc1ccc(O)c(C(=O)O)c1` [MS1, 5-formylsalicyclic acid]: in assay [2], the “P50 D (aver.)” value was 21.0 mm Hg and the “ΔP50 (P50 D - P50 C)” value is 1.0 mm Hg. Further, the “binding sites in HbA seen in the difference electron-density map” value in assay [3] is reported as “four binding sites for MS1 in the central water cavity of HbA”.
